Measured values taken from US12383528B2, “Cromolyn esters and uses thereof” (The General Hospital Corporation, priority 2018, dated 2025).

Columns and labels:
[1] = Measured log D (lipophilicity); assay type: physicochemical
[2] = Brain positron emission tomography (PET) imaging study, dynamic PET; assay type: in vivo; conditions: rhesus monkey PET; for order of brain tracer penetration: three 18F-cromolyn analogs compared
Procedure: Dynamic PET imaging (GE Discovery MI Scanner) in a rhesus monkey was performed with compound 5 (diethyl ester), compound 6 (di-tert-butyl ester), and ^18F-Cromolyn (diacid).

Structure (SMILES) | logD [1] | regional brain uptake [2] | time of maximum brain uptake [2] | washout from brain [2] | maximum brain uptake ([2]; at 2 min) | brain uptake during washout ([2]; at 20 min) | brain uptake during washout ([2]; at 60 min) | order of brain tracer penetration [2]
CCOC(=O)c1cc(=O)c2c(OCC([18F])COc3cccc4oc(C(=O)OCC)cc(=O)c34)cccc2o1 [Compound 5] | 2.5 | uptake in all regions of the brain with the highest in putamen, grey matter and cerebellum followed by caudate, thalamus and white matter | 2 min | washout was slow | 2.3 SUV | 2 SUV | 1.5 SUV | diethyl ester>di-tert-butyl ester>diacid
CC(C)(C)OC(=O)c1cc(=O)c2c(OCC([18F])COc3cccc4oc(C(=O)OC(C)(C)C)cc(=O)c34)cccc2o1 [Compound 6] | 3.5 | – | – | – | – | – | – | diethyl ester>di-tert-butyl ester>diacid
O=C(O)c1cc(=O)c2c(OCC([18F])COc3cccc4oc(C(=O)O)cc(=O)c34)cccc2o1 [^18F-Cromolyn (diacid), reference compound] | – | – | – | – | – | – | – | diethyl ester>di-tert-butyl ester>diacid
